What was measured:
liver cells [1] = assay: In vivo LNP delivery of nanoplasmid CMV-firefly luciferase DNA to liver of juvenile mice, BLI; conditions: juvenile female BALB/C mice age 14 days; 0.25 mg/kg nanoplasmid CMV-firefly luciferase retroorbital i.v.; BLI at 4 hr
Method: Juvenile female BALB/C mice of age 14 days (n=4/group) were retroorbitally intravenously administered 0.25 mg/kg of nanoplasmid CMV-firefly luciferase (Nature Technology Corp) formulated with LNP compositions as described in Example 66. One group of mice was treated with vehicle (PBS, Thermo Fisher Scientific, USA) as a negative control.
(§1) The location and extent of luciferase expression in treated and control mice were determined at 4 hr by bioluminescent imaging (BLI) of anesthetized mice using an IVIS Lumina in vivo imaging system (Perkin Elmer) according to the manufacturer's instructions. Briefly, mice were anesthetized using isoflurane in oxygen, and placed supine on a heated stage. Mice were then administered D-luciferin (Perkin-Elmer #122799) IP, and BLI was performed.

[2] = Body weight change of mice after LNP administration; assay type: in vivo, BALB/C mice
Method: The mice above were also monitored for changes in body weight after LNP delivery. Mice were manually weighed on a scale before LNP dosage and then weighed 24 hrs after administration of 0.5 mg/kg of LNP article encapsulating Cleancap firefly luciferase mRNA. The average of weight change n=3 is reported below.
In addition, the body weight of mice treated with the LNP compositions of Table 25 was assessed prior to intravenous administration and twenty-four hours post-administration and the body weights at baseline and post-treatment were compared. The average percentage of body weight change for each group of mice treated with each LNP composition of Table 25 is shown in Table 28. […]

liver cells [3] = assay: In vivo LNP delivery of firefly luciferase DNA to liver of adult mice, BLI; design: species or system BALB/C mice; conditions: BLI at 24 hr; for Mean Liver Luciferase Flux (p/s): AM-TTR firefly luciferase nanoplasmid DNA 0.5 mg/kg, adult BALB/C, n=3
Method: as §1
as §1, with “4 hr and 48” for “4”
as §1, with “24” for “4”
One group of mice was treated with an LNP composition of the present disclosure comprising Compound No. 30 as a positive control.
as §1, with “hr for RNA delivery, or 48 hr for DNA delivery,” for “hr”

liver cells [4] = assay: In vivo LNP delivery of firefly luciferase mRNA to liver, bioluminescent imaging (BLI); design: species or system BALB/C mice; conditions: 0.5 mg/kg fLuciferase mRNA i.v., BLI at 4 hr
Method: Adult female BALB/C mice (n=3/group) were intravenously administered 0.5 mg/kg of 5′-CleanCap-fLuciferase mRNA (TriLink Biotech) formulated with LNP compositions as described in Example 66. One group of mice was treated with vehicle (PBS, Thermo Fisher Scientific, USA) as a negative control.
as §1
Adult female BALB/C mice (n=3/group) were intravenously administered 0.5 mg/kg of 5′-CleanCap-fLuciferase mRNA (TriLink Biotech) formulated with the LNP compositions shown in Table 25. One group of mice was treated with vehicle (PBS, Thermo Fisher Scientific, USA) as a negative control. […]

[5] = Physical characteristics of LNPs (particle size, PDI); assay type: physicochemical
[6] = LNP with Fluc DNA, compound/DOPE/Cholesterol/DMG-PEG2000 38/50/10.0/2.0, Lipid:DNA 45:1 (w/w)
[7] = LNP with Fluc mRNA, compound/DOPE/Cholesterol/DMG-PEG2000 41.44/45.85/10/2.7, Lipid:RNA 40:1 (w/w)

PDI DNA [5, 6]: 0.167
Particle Size (nm) DNA [5, 6]: 276.9 nm
PDI RNA [5, 7]: 0.170
Particle Size (nm) RNA [5, 7]: 326.7 nm
SMILES: CC(C)CCCC1CCC(C(=O)OCCOC(=O)CCN(CCCN(C)CCCN(CCC(=O)OCCOC(=O)C2CCC(CCCC(C)C)CC2)CCC(=O)OCCOC(=O)C2CCC(CCCC(C)C)CC2)CCC(=O)OCCOC(=O)C2CCC(CCCC(C)C)CC2)CC1 (stereo not shown) [Compound 30]
Ave flux (p/s) n = 4 (liver cells [1]): 7332500000 p/s
Ave weight change (gram) n = 3 ([2]; 24 hrs after 0.5 mg/kg LNP encapsulating firefly luciferase mRNA, adult female BALB/C mice): −5.67 gram
% Body Weight Change 24 hr ([2]; LNP compositions of Table 25, 0.5 mg/kg fLuciferase mRNA i.v., 24 hr post-administration vs baseline): −2.8%
luciferase expression by BLI after DNA LNP, liver specific promoter (in words) (liver cells [3]; 0.5 mg/kg total DNA, nanoplasmid firefly luciferase under AM-TTR promoter, adult BALB/C mice): successfully delivered DNA to liver cells
Mean Liver Luciferase Flux (p/s) (liver cells [3]; LNP (Table 47) with Compound No. 30 prepared according to Alternative General Procedure K): 31400000 p/s
Mean Liver Luciferase Flux (p/s) (liver cells [3]; LNP (Table 47) with Compound No. 30 prepared according to Alternative General Procedure L): 29600000 p/s
Mean Liver Luciferase Flux (p/s) (liver cells [3]; LNP (Table 47) with Compound No. 30 prepared according to Example 21): 21266666.67 p/s
Mean Liver Luciferase Flux (p/s) (liver cells [4]; LNP compositions of Table 25, adult female BALB/C, n=3): 1.28e11 p/s
Ave flux (p/s) n = 3 (liver cells [4]; adult female BALB/C mice, LNP as in Example 66): 3.26E+10 p/s

Source: patent publication US20250099383A1, “COMPOSITIONS AND METHODS FOR DELIVERY OF NUCLEIC ACIDS” (Poseida Therapeutics, Inc., priority 2022, published 2025)
